Results as given in patent US10112955B2, “Isoindoline, azaisoindoline, dihydroindenone and dihydroazaindenone inhibitors of Mnk1 and Mnk2” (eFFECTOR THERAPEUTICS, INC., priority 2015, dated 2018).
Read-outs that look alike come from different tables or passages of the source.

How the values were obtained:
[1] = target: MNK1 (Homo sapiens (Human), UniProt Q9BUB5); test: MNK Biochemical Enzymatic Assay (ADP-Glo), MNK1
Method: (§1) Compounds are screened for MNK inhibition using the ADP-Glo kinase assay kit (Promega, catalogue No. V9101). All kinase reactions are performed in Reaction Buffer E (15 mM HEPES pH7.4, 20 mM NaCl, 1 mM EGTA, 10 mM MgCl2, 0.1 mg/ml BGG, and 0.02% Tween-20). […] Final DMSO concentration in each reaction is 1%.
(§2) Kinase reactions are carried out in 96-well half-area white flat-bottom polystyrene plates in a final volume of 25 μl. MNK1/2 enzymes are pre-incubated with compound and peptide substrate for 5 minutes prior to the addition of ATP. After the addition of ATP, kinase reactions are incubated at room temperature for 40 minutes. Reactions are subsequently stopped by the addition of 25 μl of ADP-Glo Reagent and incubating for an additional 40 minutes. The final luminescent signal used for kinase activity readout is produced by the addition of 45 μl of Kinase Detection Reagent (ADP-Glo kit, Promega) and incubating for 40 minutes.

[2] = target: MNK2 (Homo sapiens (Human), UniProt Q9HBH9); test: MNK Biochemical Enzymatic Assay (ADP-Glo), MNK2; conditions: 3 nM recombinant MNK2, 50 μM substrate peptide, 10 μM ATP
MNK2, sequence (Q9HBH9 whole entry): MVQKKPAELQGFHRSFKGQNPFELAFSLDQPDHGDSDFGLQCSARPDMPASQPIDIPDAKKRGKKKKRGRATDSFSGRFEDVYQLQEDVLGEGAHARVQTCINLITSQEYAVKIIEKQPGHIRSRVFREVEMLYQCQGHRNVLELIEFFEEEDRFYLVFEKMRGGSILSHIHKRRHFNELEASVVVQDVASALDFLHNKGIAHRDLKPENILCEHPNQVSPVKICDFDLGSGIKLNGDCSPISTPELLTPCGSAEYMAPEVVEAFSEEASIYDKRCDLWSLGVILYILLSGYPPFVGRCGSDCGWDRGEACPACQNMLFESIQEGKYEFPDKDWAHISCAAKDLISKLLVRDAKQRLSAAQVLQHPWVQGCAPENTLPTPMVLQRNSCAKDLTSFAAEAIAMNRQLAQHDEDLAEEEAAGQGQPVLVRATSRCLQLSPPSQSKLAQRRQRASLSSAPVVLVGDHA
Method: as §1, §2

[3] = system: Phosphorylated eIF4E; test: peIF4E Signaling Cellular Assay (CisBio peIF4E HTRF); type: cell-based; conditions: cells incubated with compound for 2 hrs at 37° C., 12-point curve
Method: Phosphorylated eIF4E is assayed using the CisBio peIF4E HTRF® assay kit (CisBio, catalogue No. 64EF4PEG). Cells are plated in 96-well tissue-culture treated plate in appropriate growth medium (90 μL). Compounds (10×) are diluted using 3-fold serial dilutions in cell culture medium and added to cells. Plates are incubated for 2 hrs at 37° C. The cell supernatant is carefully removed either by aspirating supernatant or by flicking the plate. Immediately 50 μL of supplemented lysis buffer (1×) is added and incubated for at least 30 minutes at room temperature under shaking. After homogenization by pipeting up and down, 16 μL of cell lysate is transferred from the 96-well cell-culture plate to a 384-well small volume white plate. 4 μL of premixed antibody solutions (vol/vol) is prepared in the detection buffer and added. The plate is covered with a plate sealer and incubated overnight at room temperature. The fluorescence emissions at two different wavelengths are read (665 nm and 620 nm) on a Wallac Victor2. Emission ratios are converted into percent inhibitions and imported into GraphPad Prism software. […] IC50 values are determined using a nonlinear regression model available in GraphPad Prism 5.

[4] = 10 nM recombinant MNK1, 100 μM substrate peptide, 300 μM ATP, read-out: IC50 Mnk1

MNK1, sequence (Q9BUB5 whole entry): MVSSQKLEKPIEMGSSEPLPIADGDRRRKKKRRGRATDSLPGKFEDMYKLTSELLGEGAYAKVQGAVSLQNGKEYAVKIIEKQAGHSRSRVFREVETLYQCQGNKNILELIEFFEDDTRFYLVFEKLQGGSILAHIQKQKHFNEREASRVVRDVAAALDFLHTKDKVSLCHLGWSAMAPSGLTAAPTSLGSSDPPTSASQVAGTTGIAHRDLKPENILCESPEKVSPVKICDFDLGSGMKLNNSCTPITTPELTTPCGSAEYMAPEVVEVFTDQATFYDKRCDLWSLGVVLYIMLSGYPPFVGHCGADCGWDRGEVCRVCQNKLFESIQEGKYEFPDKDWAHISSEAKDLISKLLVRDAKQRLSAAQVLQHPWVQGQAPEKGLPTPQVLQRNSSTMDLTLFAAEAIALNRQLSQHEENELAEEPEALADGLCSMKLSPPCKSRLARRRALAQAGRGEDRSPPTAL

| Compound | IC50 [1, 4] [nM] | IC50 [2] [nM] | IC50 [3] [nM] | IC50 [1] [nM] |
| --- | --- | --- | --- | --- |
| CC1NC(=O)c2ccc(Nc3ccnc(NC(=O)C4CC4)c3)cc21 (stereo not drawn) [Cpd. No. 24, N-(4-((3-methyl-1-oxoisoindolin-5-yl)amino)pyridin-2-yl) cyclopropane carboxamide] | < 10 | 100 to 10000 | 50 to 1000 | – |
| CN1Cc2cc(Nc3ncnc4[nH]cnc34)ccc2C1=O [Cpd. No. 2, 5-((9H-purin-6-yl)amino)-2-methylisoindolin-1-one] | 10 to 100 | – | – | – |
| CC1NC(=O)c2cnc(Nc3ccnc(NC(=O)C4CC4)c3)cc21 (stereo not drawn) [Cpd. No. 42, N-(4-((1-methyl-3-oxo-2,3-dihydro-1H-pyrrolo[3,4-c]pyridin-6-yl)amino)pyridin-2-yl)cyclopropanecarboxamide] | < 10 | < 10 | 1000 to 100000 | – |
| CC1(C)NC(=O)c2ccc(Nc3ccncn3)cc21 [Cpd. No. 15, 3,3-dimethyl-5-(pyrimidin-4-ylamino)isoindolin-1-one] | 100 to 10000 | 10 to 100 | 1000 to 100000 | – |
| O=C1NC(c2ccsc2)c2cc(Nc3ccncn3)ccc21 (stereo not drawn) [Cpd. No. 37, 5-(pyrimidin-4-ylamino)-3-(thiophen-3-yl)isoindolin-1-one] | < 10 | < 10 | – | – |
| CC1(N)CNC(=O)c2ccc(Nc3ccncn3)cc21 (stereo not drawn) [Cpd. No. 32, 4-amino-4-methyl-6-(pyrimidin-4-ylamino)-3,4-dihydroisoquinolin-1(2H)-one] | – | 100 to 10000 | – | – |
| COc1cncnc1Nc1cc(C)c2c(c1)C1(CCCCC1)NC2=O [Cpd. No. 54, 6′-((5-methoxypyrimidin-4-yl)amino)-4′-methylspiro[cyclohexane-1,1′-isoindolin]-3′-one] | – | < 10 | < 50 | – |
| CCc1c(N)ncnc1Nc1cc(C)c2c(c1)C1(CCCCC1)NC2=O [Cpd. No. 53, 6′-((6-amino-5-ethylpyrimidin-4-yl)amino)-4′-methylspiro[cyclohexane-1,1′-isoindolin]-3′-one] | – | < 10 | 50 to 1000 | – |
| CC1NC(=O)c2ccc(Nc3ccncn3)cc21 (stereo not drawn) [Cpd. No. 8, 3-methyl-5-(pyrimidin-4-ylamino)isoindolin-1-one] | 10 to 100 | 10 to 100 | 1000 to 100000 | – |
| CC1Cc2cc(Nc3ccncn3)ccc2NC1=O (stereo not drawn) [Cpd. No. 21, 3-methyl-6-(pyrimidin-4-ylamino)-3,4-dihydroquinolin-2(1H)-one] | – | 100 to 10000 | – | – |
| CC1CNC(=O)c2ccc(Nc3ccncn3)cc21 (stereo not drawn) [Cpd. No. 22, 4-methyl-6-(pyrimidin-4-ylamino)-3,4-dihydroisoquinolin-1(2H)-one] | 100 to 10000 | 10 to 100 | 1000 to 100000 | – |
| CC1NC(=O)c2ccc(Nc3cc(NC(=O)C4CC4)ncn3)cc21 (stereo not drawn) [Cpd. No. 17, N-(6-((3-methyl-1-oxoisoindolin-5-yl)amino)pyrimidin-4-yl)cyclopropanecarboxamide] | < 10 | < 10 | 50 to 1000 | – |
| Cc1cc(Nc2ccc3c(c2)C(C)NC3=O)ncn1 (stereo not drawn) [Cpd. No. 26, 3-methyl-5-((6-methylpyrimidin-4-yl)amino)isoindolin-1-one] | – | 100 to 10000 | – | – |
| O=C1NC2(CCCCC2)c2cc(Nc3ccncn3)cc(Cl)c21 [Cpd. No. 46, 4′-chloro-6′-(pyrimidin-4-ylamino)spiro[cyclohexane-1,1′-isoindolin]-3′-one] | – | < 10 | < 50 | – |
| O=C1CCc2cc(Nc3ccncn3)ccc21 [Cpd. No. 5, 5-(pyrimidin-4-ylamino)-2,3-dihydro-1H-inden-1-one] | 100 to 10000 | – | – | – |
| CC1Cc2cc(Nc3ccncn3)ccc2C(=O)N1 (stereo not drawn) [Cpd. No. 23, 3-methyl-6-(pyrimidin-4-ylamino)-3,4-dihydroisoquinolin-1(2H)-one] | 100 to 10000 | 10 to 100 | 1000 to 100000 | – |
| CNc1cc(Nc2ccc3c(c2)C(C)NC3=O)ccn1 (stereo not drawn) [Cpd. No. 25, 3-methyl-5-((2-(methylamino)pyridin-4-yl)amino) isoindolin-1-one] | – | 100 to 10000 | – | – |
| O=c1[nH]sc2cc(Nc3ccncn3)ccc12 [Cpd. No. 27, 6-(pyrimidin-4-ylamino)benzo[d]isothiazol-3(2H)-one] | – | 100 to 10000 | – | – |
| CSc1cc(Nc2ccc3c(c2)C(C)NC3=O)ncn1 (stereo not drawn) [Cpd. No. 16, 3-methyl-5-((6-(methylthio)pyrimidin-4-yl)amino)isoindolin-1-one] | – | 100 to 10000 | – | – |

| Compound | IC50 [1, 4] [nM] | IC50 [2] [nM] | IC50 [3] [nM] | IC50 [1] [nM] |
| --- | --- | --- | --- | --- |
| Nc1cc(Nc2cc(Cl)c3c(c2)C2(CCCCC2)NC3=O)ncn1 [Cpd. No. 48, 6′-((6-aminopyrimidin-4-yl)amino)-4′-chlorospiro[cyclohexane-1,1′-isoindolin]-3′-one] | – | < 10 | < 50 | – |
| Cc1cc(Nc2cc(N)ncn2)cc2c1C(=O)NC21CCCC1 [Cpd. No. 47, 6′-((6-aminopyrimidin-4-yl)amino)-4′-methylspiro[cyclopentane-1,1′-isoindolin]-3′-one] | – | < 10 | 50 to 1000 | – |
| CC1NC(=O)c2ccc(Nc3cc(NC(=O)C(C)(C)C)ncn3)cc21 (stereo not drawn) [Cpd. No. 18, N-(6-((3-methyl-1-oxoisoindolin-5-yl)amino)pyrimidin-4-yl)pivalamide] | – | 100 to 10000 | – | – |
| Nc1ncnc(Nc2cc(Cl)c3c(c2)C2(CCCCC2)NC3=O)c1Cl [Cpd. No. 59, 6′-((6-amino-5-chloropyrimidin-4-yl)amino)-4′-chlorospiro[cyclohexane-1,1′-isoindolin]-3′-one] | – | < 10 | < 50 | – |
| CC1NC(=O)c2ccc(Nc3ncnc4c3CC(=O)N4)cc21 (stereo not drawn) [Cpd. No. 41, 4-[(3-methyl-1-oxo-isoindolin-5-yl)amino]-5,7-dihydropyrrolo[2,3-d]pyrimidin-6-one] | – | 100 to 10000 | – | – |
| Cc1cc(Nc2cc(N)ncn2)cc2c1C(=O)NC2(C)C [Cpd. No. 44, 5-((6-aminopyrimidin-4-yl)amino)-3,3,7-trimethylisoindolin-1-one] | – | < 10 | 50 to 1000 | – |
| O=C1NCc2cc(Nc3cc(Cl)ncn3)ccc21 [Cpd. No. 4, 5-((6-chloropyrimidin-4-yl)amino)isoindolin-1-one] | 100 to 10000 | – | – | – |
| O=C1NC2CC2c2cc(Nc3ccncn3)ccc21 (stereo not drawn) [Cpd. No. 29, 6-(pyrimidin-4-ylamino)-1,1a,2,7b-tetrahydro-3H-cyclopropa[c]isoquinolin-3-one] | – | 100 to 10000 | 1000 to 100000 | – |
| Cn1cc(Nc2cc(Nc3ccc4c(c3)CNC4=O)ncn2)cn1 [Cpd. No. 6, 5-((6-((1-methyl-1H-pyrazol-4-yl)amino)pyrimidin-4-yl)amino)isoindolin-1-one] | – | – | – | 10 to 100 |
| CC1(N)CC(=O)c2ccc(Nc3ccncn3)cc21 (stereo not drawn) [Cpd. No. 30, 3-amino-3-methyl-5-(pyrimidin-4-ylamino)-2,3-dihydro-1H-inden-1-one] | – | 100 to 10000 | – | – |
| O=C1NCc2cc(Nc3ccncn3)ccc21 [Cpd. No. 3, 5-(pyrimidin-4-ylamino)isoindolin-1-one] | 100 to 10000 | – | – | – |
| CC1c2cc(Nc3ccncn3)ccc2C(=O)N1C (stereo not drawn) [Cpd. No. 20, 2,3-dimethyl-5-(pyrimidin-4-ylamino)isoindolin-1-one] | – | 100 to 10000 | – | – |
| O=C1NCc2cc(Nc3ncnc4[nH]cnc34)ccc21 [Cpd. No. 1, 5-((9H-purin-6-yl)amino)isoindolin-1-one] | 10 to 100 | – | – | – |
| NC1CC(=O)c2ccc(Nc3ccncn3)cc21 (stereo not drawn) [Cpd. No. 28, 3-amino-5-(pyrimidin-4-ylamino)-2,3-dihydro-1H-inden-1-one] | – | 100 to 10000 | – | – |
| CC1(C)NC(=O)c2ccc(Nc3cc(N)ncn3)c(Cl)c21 [Cpd. No. 52, 5-((6-aminopyrimidin-4-yl)amino)-4-chloro-3,3-dimethylisoindolin-1-one] | – | < 10 | 1000 to 100000 | – |
| CC1(C)NC(=O)c2c(Cl)cc(Nc3ncnc(N)c3Cl)cc21 [Cpd. No. 50, 5-((6-amino-5-chloropyrimidin-4-yl)amino)-7-chloro-3,3-dimethylisoindolin-1-one] | – | < 10 | < 50 | – |
| CCc1cncnc1Nc1cc(C)c2c(c1)C1(CCCCC1)NC2=O [Cpd. No. 56, 6′-((5-ethylpyrimidin-4-yl)amino)-4′-methylspiro[cyclohexane-1,1′-isoindolin]-3′-one] | – | 10 to 100 | 50 to 1000 | – |
| Cc1cc(Nc2cc(N)ncn2)cc2c1C(=O)NC21CCCCC1 [Cpd. No. 51, 6′-((6-aminopyrimidin-4-yl)amino)-4′-methylspiro[cyclohexane-1,1′-isoindolin]-3′-one] | – | < 10 | < 50 | – |
| NC(=O)c1ccc2c(c1)ncn2-c1cc(N)ncn1 [Cpd. No. 49, 1-(6-aminopyrimidin-4-yl)-1H-benzo[d]imidazole-5-carboxamide] | – | 10 to 100 | 1000 to 100000 | – |
